In assay [1] the target is T1, human Smo (amino acids 181-787) (Homo sapiens, UniProt Q99835).
T1 construct: expressed in transfected cells; membrane preparation
The experiment in a line: Smo radioligand competition binding assay (displacement of 3H-PF-03451358 from HEK293 membranes). As to conditions: for inhibition at 0.05 µM: 0.05 μM test compound, displacement of 3H-PF-03451358, read-out: SMO % inh. @ 0.05 μM; for IC50: radioligand competition binding. A digest of the protocol:
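Membranes (40 μg protein/well) from HEK293 expressing murine Igk-leader-fused Smo 181-787 incubated 2 h at room temperature with 3 nM 3H-PF-03451358 in Tris pH 7.5/NaCl/MgCl2/EDTA/BSA buffer; filter-bound counts by scintillation. Nonspecific binding with 30 μM cold PF-03451358; IC50 from four-parameter fit of % inhibition.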

For a further assay, the system named is Gli-Luc/MEF cells (Smo). Put plainly: Gli-Luc/MEF assay (Shh-stimulated luciferase reporter under the Gli response element). In kind it is cell-based, mouse. As to conditions: Mus musculus, MEF, 48 h. A digest of the protocol: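 Mouse Gli-Luc/MEF cells dosed with compound (3-fold series, […]) plus 2 μg/mL recombinant mouse Shh, then incubated 48 h at 37° C, 5% CO2. Bright-Glo luminescence read; IC50 calculated from inhibition of Shh-stimulated luciferase.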
For orientation: A reporter such as luciferase makes a cellular process visible.

The IC50 is the concentration needed to halve the response being measured. A higher IC50 goes with weaker potency in that assay.

T1 sequence (Q99835 181-787): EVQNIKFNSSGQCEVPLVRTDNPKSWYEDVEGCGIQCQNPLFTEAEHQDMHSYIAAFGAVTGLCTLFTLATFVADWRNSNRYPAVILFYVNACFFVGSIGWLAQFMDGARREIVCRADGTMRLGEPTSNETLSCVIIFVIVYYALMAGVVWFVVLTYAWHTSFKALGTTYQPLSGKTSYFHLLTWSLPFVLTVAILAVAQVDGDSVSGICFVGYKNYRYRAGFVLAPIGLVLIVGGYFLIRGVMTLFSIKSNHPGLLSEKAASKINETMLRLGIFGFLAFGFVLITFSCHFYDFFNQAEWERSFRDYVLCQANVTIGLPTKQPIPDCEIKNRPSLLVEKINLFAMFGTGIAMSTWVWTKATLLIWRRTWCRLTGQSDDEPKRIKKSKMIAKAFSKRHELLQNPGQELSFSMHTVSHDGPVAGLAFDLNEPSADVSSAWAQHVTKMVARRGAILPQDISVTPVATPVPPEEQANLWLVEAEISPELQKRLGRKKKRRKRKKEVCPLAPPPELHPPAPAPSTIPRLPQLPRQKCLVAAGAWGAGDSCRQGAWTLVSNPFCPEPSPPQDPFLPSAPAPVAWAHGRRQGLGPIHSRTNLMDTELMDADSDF

Consider `Cn1c(-c2cc(N3CCC(N4CCNC(=O)C4=O)CC3)ncc2Cl)nc2ccccc21` [Example A-98, 1-{1-[5-chloro-4-(1-methyl-1H-benzimidazol-2-yl)pyridin-2-yl]piperidin-4-yl}piperazine-2,3-dione], for which, in assay [1], the inhibition at 0.05 µM turned out to be 85% and the IC50 was 122 nM. Further, the IC50 in the assay with Gli-Luc/MEF cells (Smo) came out at 66 nM.
On the same counts, the results for `COCCc1[nH]nc2c1CN(c1cc(-c3nc4ccccc4n3C)c(Cl)cn1)CC2` [Example A-99, 5-[5-chloro-4-(1-methyl-1H-benzimidazol-2-yl)pyridin-2-yl]-3-(2-methoxyethyl)-4,5,6,7-tetrahydro-1H-pyrazolo[4,3-c]pyridine] are 84%, 84 nM and 28 nM.
The like results for `Cn1c(-c2cc(N3CCC(C(=O)N4CCCC4)CC3)ncc2Cl)nc2ccccc21` [Example A-100, 2-{5-chloro-2-[4-(pyrrolidin-1-ylcarbonyl)piperidin-1-yl]pyridin-4-yl}-1-methyl-1H-benzimidazole] were, in that order, 83%, 55 nM and 21 nM.
The like results for `Cn1c(-c2cc(N3CCn4c(nnc4C(F)F)C3)ncc2Cl)nc2ccccc21` [Example A-101, 7-[5-chloro-4-(1-methyl-1H-benzimidazol-2-yl)pyridin-2-yl]-3-(difluoromethyl)-5,6,7,8-tetrahydro[1,2,4]triazolo[4,3-a]pyrazine] were, in that order, 81%, 103 nM and 95 nM.
Take `Cn1c(-c2cc(N3CCC(CO)C3)ncc2Cl)nc2ccccc21` (stereo not drawn) [Example A-102, {1-[5-chloro-4-(1-methyl-1H-benzimidazol-2-yl)pyridin-2-yl]pyrrolidin-3-yl}methanol]: the inhibition at 0.05 µM in assay [1] amounted to 80%. The IC50 was 91 nM in assay [1] and 40 nM in the assay with Gli-Luc/MEF cells (Smo).
The like results for `Cn1c(-c2cc(N3CCN(CC(O)CO)CC3)ncc2Cl)nc2ccccc21` (stereo not drawn) [Example A-103, 3-{4-[5-chloro-4-(1-methyl-1H-benzimidazol-2-yl)pyridin-2-yl]piperazin-1-yl}propane-1,2-diol] were, in that order, 80%, 153 nM and 27 nM.
As to `CNS(=O)(=O)C1CCN(c2cc(-c3nc4ccccc4n3C)c(Cl)cn2)C1` (stereo not drawn) [Example A-104, 1-[5-chloro-4-(1-methyl-1H-benzimidazol-2-yl)pyridin-2-yl]-N-methylpyrrolidine-3-sulfonamide], in assay [1], the inhibition at 0.05 µM was determined as 80% and the IC50 was determined as 37 nM. In the assay with Gli-Luc/MEF cells (Smo), the IC50 stood at 23 nM.
On the same counts, the results for `Cn1c(-c2cc(N3CCC(O)(c4ccn[nH]4)C3)ncc2Cl)nc2ccccc21` (stereo not drawn) [Example A-105, 1-[5-chloro-4-(1-methyl-1H-benzimidazol-2-yl)pyridin-2-yl]-3-(1H-pyrazol-5-yl)pyrrolidin-3-ol] are 79%, 65 nM and 24 nM.
The like results for `Cn1c(-c2cc(N3CCn4c(CCCO)nnc4C3)ncc2Cl)nc2ccccc21` [Example A-106, 3-{7-[5-chloro-4-(1-methyl-1H-benzimidazol-2-yl)pyridin-2-yl]-5,6,7,8-tetrahydro[1,2,4]triazolo[4,3-a]pyrazin-3-yl}propan-1-ol] were, in that order, 78%, 217 nM and 116 nM.
On the same counts, the results for `Cn1c(-c2cc(N3CCc4[nH]cnc4C3)ncc2Cl)nc2ccccc21` [Example A-107, 5-[5-chloro-4-(1-methyl-1H-benzimidazol-2-yl)pyridin-2-yl]-4,5,6,7-tetrahydro-1H-imidazo[4,5-c]pyridine] are 77%, 123 nM and 37 nM.
`Cn1c(-c2cc(N3C[C@](C)(CO)[C@](C)(CO)C3)ncc2Cl)nc2ccccc21` [Example A-108, {(3R,4S)-1-[5-chloro-4-(1-methyl-1H-benzimidazol-2-yl)pyridin-2-yl]-3,4-dimethylpyrrolidine-3,4-diyl}dimethanol]: in assay [1], the inhibition at 0.05 µM was found to be 76% and the IC50 came out at 109 nM. For the same molecule, the IC50 with Gli-Luc/MEF cells (Smo) was 59 nM.
On the same counts, the results for `Cn1c(-c2cc(N3CCn4cnnc4C3)ncc2Cl)nc2ccccc21` [Example A-109, 7-[5-chloro-4-(1-methyl-1H-benzimidazol-2-yl)pyridin-2-yl]-5,6,7,8-tetrahydro[1,2,4]triazolo[4,3-a]pyrazine] are 75%, 129 nM and 140 nM.
On the same counts, the results for `Cn1c(-c2cc(N3CCCn4cnc(CO)c4C3)ncc2Cl)nc2ccccc21` [Example A-110, {8-[5-chloro-4-(1-methyl-1H-benzimidazol-2-yl)pyridin-2-yl]-6,7,8,9-tetrahydro-5H-imidazo[1,5-a][1,4]diazepin-1-yl}methanol] are 74%, 161 nM and 93 nM.
On to `Cn1c(-c2cc(N3C[C@@H](CO)[C@@H](CCO)C3)ncc2Cl)nc2ccccc21` [Example A-111, 2-[(3R,4S)-1-[5-chloro-4-(1-methyl-1H-benzimidazol-2-yl)pyridin-2-yl]-4-(hydroxymethyl)pyrrolidin-3-yl]ethanol], for which, in assay [1], the inhibition at 0.05 µM came to 73% and the IC50 amounted to 116 nM. For the same molecule, it took 25 nM to reach half-maximal inhibition with Gli-Luc/MEF cells (Smo) (IC50).
The like results for `Cn1c(-c2cc(N3CCOCC(Cc4ncccn4)C3)ncc2Cl)nc2ccccc21` (stereo not drawn) [Example A-112, 2-{5-chloro-2-[6-(pyrimidin-2-ylmethyl)-1,4-oxazepan-4-yl]pyridin-4-yl}-1-methyl-1H-benzimidazole] were, in that order, 72%, 159 nM and 116 nM.
The like results for `CN1CCN(C2CCN(c3cc(-c4nc5ccccc5n4C)c(Cl)cn3)CC2)CC1` [Example A-113, 2-{5-chloro-2-[4-(4-methylpiperazin-1-yl)piperidin-1-yl]pyridin-4-yl}-1-methyl-1H-benzimidazole] were, in that order, 72%, 125 nM and 17 nM.
The like results for `CNC(=O)c1[nH]nc2c1CN(c1cc(-c3nc4ccccc4n3C)c(Cl)cn1)CC2` [Example A-114, 5-[5-chloro-4-(1-methyl-1H-benzimidazol-2-yl)pyridin-2-yl]-N-methyl-4,5,6,7-tetrahydro-1H-pyrazolo[4,3-c]pyridine-3-carboxamide] were, in that order, 71%, 140 nM and 47 nM.
Take `Cn1c(-c2cc(N3CCOCC(N4CCC(O)CC4)C3)ncc2Cl)nc2ccccc21` (stereo not drawn) [Example A-115, 1-{4-[5-chloro-4-(1-methyl-1H-benzimidazol-2-yl)pyridin-2-yl]-1,4-oxazepan-6-yl}piperidin-4-ol]: the inhibition at 0.05 µM in assay [1] was found to be 69%. This molecule also gave an IC50 in the assay on Gli-Luc/MEF cells (Smo) of 221 nM.
On the same counts, the results for `Cc1nnc2n1CCN(c1cc(-c3nc4ccccc4n3C)c(Cl)cn1)C2` [Example A-117, 7-[5-chloro-4-(1-methyl-1H-benzimidazol-2-yl)pyridin-2-yl]-3-methyl-5,6,7,8-tetrahydro[1,2,4]triazolo[4,3-a]pyrazine] are 68% and 101 nM.
As for `Cn1c(-c2cc(N3CCC(O)(CN4CCCC4=O)CC3)ncc2Cl)nc2ccccc21` [Example A-118, 1-({1-[5-chloro-4-(1-methyl-1H-benzimidazol-2-yl)pyridin-2-yl]-4-hydroxypiperidin-4-yl}methyl)pyrrolidin-2-one], in assay [1], the inhibition at 0.05 µM was determined as 65%. For the same molecule, in the assay with Gli-Luc/MEF cells (Smo), the IC50 amounted to 110 nM.
`Cn1c(-c2cc(N3CCC(N4CCC(O)CC4)CC3)ncc2Cl)nc2ccccc21` [Example A-119, 1′-[5-chloro-4-(1-methyl-1H-benzimidazol-2-yl)pyridin-2-yl]-1,4′-bipiperidin-4-ol]: in assay [1], the inhibition at 0.05 µM was determined as 64%. For the same molecule, the IC50 in the assay on Gli-Luc/MEF cells (Smo) amounted to 111 nM.
The like results for `Cn1c(-c2cc(N3CC(c4ccn[nH]4)C3)ncc2Cl)nc2ccccc21` [Example A-120, 2-{5-chloro-2-[3-(1H-pyrazol-5-yl)azetidin-1-yl]pyridin-4-yl}-1-methyl-1H-benzimidazole] were, in that order, 62% and 114 nM.
On the same counts, the results for `Cc1cn(C2CN(c3cc(-c4nc5ccccc5n4C)c(Cl)cn3)C2)c(=O)[nH]c1=O` [Example A-121, 1-{1-[5-chloro-4-(1-methyl-1H-benzimidazol-2-yl)pyridin-2-yl]azetidin-3-yl}-5-methylpyrimidine-2,4(1H,3H)-dione] are 62% and 94 nM.
On the same counts, the results for `Cn1c(-c2cc(N3CCC(O)(c4ccncn4)C3)ncc2Cl)nc2ccccc21` (stereo not drawn) [Example A-122, 1-[5-chloro-4-(1-methyl-1H-benzimidazol-2-yl)pyridin-2-yl]-3-pyrimidin-4-ylpyrrolidin-3-ol] are 59% and 38 nM.
Consider `Cc1nccc(C2(O)CCN(c3cc(-c4nc5ccccc5n4C)c(Cl)cn3)C2)n1` (stereo not drawn) [Example A-123, 1-[5-chloro-4-(1-methyl-1H-benzimidazol-2-yl)pyridin-2-yl]-3-(2-methylpyrimidin-4-yl)pyrrolidin-3-ol], for which the inhibition at 0.05 µM in assay [1] was found to be 59%. In the assay with Gli-Luc/MEF cells (Smo), the IC50 turned out to be 114 nM.
With `Cc1nnc(C)n1C1CCN(c2cc(-c3nc4ccccc4n3C)c(Cl)cn2)CC1` [Example A-124, 2-{5-chloro-2-[4-(3,5-dimethyl-4H-1,2,4-triazol-4-yl)piperidin-1-yl]pyridin-4-yl}-1-methyl-1H-benzimidazole], the inhibition at 0.05 µM in assay [1] was 59%. In the assay with Gli-Luc/MEF cells (Smo), this molecule gave an IC50 of 52 nM.

The values are drawn from patent publication US20120157471A1, “BENZIMIDAZOLE DERIVATIVES” (PFIZER INC., priority 2009, published 2012).
